The numbers were not newly measured in patent US20240398820A1, “METHODS FOR TREATMENT OF PULMONARY HYPERTENSION” (Respira Therapeutics, Inc., priority 2023, published 2024), which cites them from elsewhere.

The conditions of data set [1]: inhaled, following pulmonary administration.
For data set [2] the following is noted: human patients with PAH, 5 mg orally twice per day.
For data set [3] the following is noted: in vivo.

As to `CCCc1nc(C)c2c(=O)nc(-c3cc(S(=O)(=O)N4CCN(CC)CC4)ccc3OCC)[nH]n12` [Vardenafil, 1-[[3-(1,4-dihydro-5-methyl-4-oxo-7-propylimidazo[5,1-f][1,2,4]triazin-2-yl)-4-ethoxyphenyl]sulfonyl]-4-ethyl-piperazine], the dissociation rate entry is reported as “slow dissociation rate”. The tmax in data set [1] is on record as at most 2 min. The “safety and efficacy in PAH” value in data set [2] is “safe and effective”. Moreover, the clearance entry in data set [3] is “rapid clearance”.
